Results taken from patent US8336545B2, “Methods and systems for operating an aerosol generator” (priority 2001, dated 2012).
Where two headings read alike, the source gives them in different places.

Experiments:
Gram-negative pneumonia [1] = test: Example C: clinical outcome, IV antibiotic days and tolerability; format: in vivo, patients; conditions: placebo group versus aerosol group, p=0.02
Experimental: (§1) A study, using a double-blind, placebo-controlled protocol, was conducted of nebulized amikacin delivered using one or more embodiments of the pulmonary drug delivery system of the present invention in ventilated patients with Gram-negative pneumonia. The aerosol therapy was adjunctive to IV therapy per American Thoracic Society (ATS) guidelines. In this study, sixty seven patients received at least one dose of aerosol medication. Patients were randomized equally to three study arms. Arm 1 patients received an aerosolized dose of 400 mg amikacin once daily, alternating with a placebo on a twelve hour schedule. Arm 2 patients received 400 mg of amikacin twice daily (i.e. […]). Patients in Arm 3 were randomized to two aerosol treatments of placebo every twelve hours. The placebo was Normal saline. The amikacin concentration was determined in TA collected 15 min and 1, 2, 4, 8 and 12 hours after delivery of the morning dose on Days 1 and 3. A PDDS/ventilator circuit configuration was as described for Example B. The microprocessor was set to deliver aerosol during the first approximately 75% of the inspiration, to achieve aerosol drug deposition of 50-75% of the dose, within approximately 45 to 60 minutes. Amikacin levels were monitored by daily blood sampling.

[2] = format: in vivo; conditions: all Arm 1 and 2 patients
Experimental: A study, using a double-blind, placebo-controlled protocol, was conducted of nebulized amikacin delivered using one or more embodiments of the pulmonary drug delivery system of the present invention in ventilated patients with Gram-negative pneumonia. The aerosol therapy was adjunctive to IV therapy per American Thoracic Society (ATS) guidelines. Such guidelines are fully set forth, for example, in the American Journal of Respiratory Critical Care Medicine, Vol 171, pages 388-416 (2005), incorporated by reference herein in its entirety. Twelve patients were randomized equally to three study arms: Arm 1 received an aerosolized dose of 400 mg amikacin once daily, and thereafter alternating every twelve hours with placebo. Arm 2 patients received 400 mg of amikacin twice daily (i.e. […]). Patients in Arm 3 were randomized to two aerosolized treatments of placebo every twelve hours. The placebo was Normal saline. […] Amikacin levels were monitored by daily blood sampling. […] The apparent volume of epithelial lining fluid (ELF) recovered by BAL was determined by using urea as an endogenous marker of dilution. The same day, the amikacin concentration was determined in tracheal aspirates (TA) collected 15 min and 1, 2, 4, 8 and 12 hours post aerosol delivery.

Gram-negative pneumonia [3] = format: in vivo, patients
Experimental: A study, using a double-blind, placebo-controlled protocol, was conducted of nebulized amikacin delivered using one or more embodiments of the pulmonary drug delivery system of the present invention in ventilated patients with Gram-negative pneumonia. The aerosol therapy was adjunctive to IV therapy per American Thoracic Society (ATS) guidelines. Patients were randomized equally to three study arms. Arm 1 patients received an aerosolized dose of 400 mg amikacin once daily, alternating with a placebo on a twelve hour schedule. Arm 2 patients received 400 mg of amikacin twice daily (i.e. […]). Patients in Arm 3 were randomized to two aerosol treatments of placebo every twelve hours. The placebo was Normal saline. Peak amikacin concentration was determined in serum collected 0.25, 1, 2, and 4 hours after delivery of the dose on days 1 and 3, and the data was used to calculate Cmax. Trough concentrations were determined daily 30 minutes prior to the first daily dose. A PDDS/ventilator circuit configuration was as described for Example B. The microprocessor was set to deliver aerosol during the first approximately 75% of the inspiration, to achieve aerosol drug deposition of 50-75% of the dose within approximately 45 to 60 minutes. Amikacin levels were monitored by daily blood sampling.
The embodiments of devices, apparatus and/or methods of the present invention thus reduce the number of antibiotics required systemically to achieve a therapeutic result.

[4] = system: Gram-negative, pneumonia-causing bacteria; conditions: locally in TA; cited from earlier work
[5] = design: species or system patients; conditions: in vivo
Experimental: In this Example, the dose-response to aerosolized amikacin, administered in accordance with one or more embodiments of devices, apparatus and/or methods of the present invention was evaluated, as was the ability to deliver a predefined target multiple of an MIC for Gram-negative bacteria causing pneumonia, including, Pseudomonas species, in the tracheal aspirates (TA). […] Thus the desired multiple is 6,400 μg/mL.
as §1

[6] = 400 mg daily (N = 20), percent of patients
[7] = 400 mg twice daily (N = 16), count
[8] = 400 mg twice daily (N = 16), percent of patients

**Q.** Which “IV antibiotic days at the end of aerosol administration” value (Gram-negative pneumonia [1]) does the source give for `NCC[C@H](O)C(=O)N[C@@H]1C[C@H](N)[C@@H](O[C@H]2O[C@H](CN)[C@@H](O)[C@H](O)[C@H]2O)[C@H](O)[C@H]1O[C@H]1O[C@H](CO)[C@@H](O)[C@H](N)[C@H]1O` [amikacin] here?
**A.** placebo group had statistically more IV antibiotic days then the aerosol group

**Q.** And the “amikacin levels versus highest MIC values” [2]?
**A.** exceeded the highest MIC values for pathogens causing Gram-negative pneumonia

**Q.** And the “mean IV antibiotics at end of treatment, aerosolized placebo relative to twice daily aerosolized amikacin” value (Gram-negative pneumonia [3]; 400 mg BID, end of treatment (mean of seven days))?
**A.** about two

**Q.** What about the “Total Number of Daily Antimicrobials” value (Gram-negative pneumonia [3]; 400 mg daily (N = 20)) of the same compound?
**A.** 118

**Q.** And the “Number of Patients With at Least One Daily Antimicrobial” value (Gram-negative pneumonia [3]; 400 mg daily (N = 20), count)?
**A.** 19

**Q.** What about the “patients with ANTIBACTERIALS FOR SYSTEMIC USE” value (Gram-negative pneumonia [3]; 400 mg daily (N = 20), count) of the same compound?
**A.** 18

**Q.** And the “Number of Patients With at Least One Daily Antimicrobial” value (Gram-negative pneumonia [3]; [6])?
**A.** (95.0%)

**Q.** And the “patients with ANTIBACTERIALS FOR SYSTEMIC USE” value (Gram-negative pneumonia [3]; [6])?
**A.** (90.0%)

**Q.** And the “Total Number of Daily Antimicrobials” value (Gram-negative pneumonia [3]; 400 mg twice daily (N = 16))?
**A.** 75

**Q.** What about the “Number of Patients With at Least One Daily Antimicrobial” value (Gram-negative pneumonia [3]; [7]) of the same compound?
**A.** 16

**Q.** What about the “patients with ANTIBACTERIALS FOR SYSTEMIC USE” value (Gram-negative pneumonia [3]; [7]) of the same compound?
**A.** 16

**Q.** And the “Number of Patients With at Least One Daily Antimicrobial” value (Gram-negative pneumonia [3]; [8])?
**A.** (100.0%)

**Q.** And the “patients with ANTIBACTERIALS FOR SYSTEMIC USE” value (Gram-negative pneumonia [3]; [8])?
**A.** (100.0%)

**Q.** And the “reference MIC value” [4]?
**A.** 256 µg/mL

**Q.** And the “TA levels of amikacin” value ([5]; human)?
**A.** exceeded 1,100 μg/mL

**Q.** And the “TA level as multiple of the reference MIC target value” [5]?
**A.** at least four

**Q.** And the “amikacin level versus highest MIC values” [5]?
**A.** exceeded the highest MIC values for most Gram negative pathogens causing pneumonia
